Results published in US7514068B2, “Biphenyl-pyrazolecarboxamide compounds” (Concert Pharmaceuticals Inc., priority 2005, dated 2009).
Like-named read-outs stand apart in the source and are kept apart here.

Assays:
[1] = rat liver microsome assays; cited from earlier work
[2] = RIO-North American Phase III clinical trial, adverse-event associated discontinuations; assay type: in vivo, human; settings: 20 mg dose
From the text: In reports of these clinical trials Compound 1 was described as having a good safety profile with relatively low increases in serious adverse events across the different dose groups tested. However, it is clearly less well tolerated in higher doses, with the more common side effects including depression, anxiety, and irritability, and in some but not all studies, significant amounts of nausea. Even in a highly motivated Phase III clinical trial population, a considerable number of dose-dependent discontinuations occurred.

[3] = RIO-North American trial, cited from earlier work
CB1 vs. CB2 receptor = settings: in vitro receptor binding studies; cited from earlier work
animal models = settings: cited from earlier work
[4] = tested on: wide range of other neurological receptors; settings: in vitro receptor binding studies; cited from earlier work
rats = settings: cited from earlier work

Row | Structure (SMILES) | sites of metabolism [1] | increase of adverse-event associated discontinuations versus placebo [2] [%] | first year adverse-event associated discontinuations ([3]; 5 mg dose) [%] | first year adverse-event associated discontinuations ([3]; 20 mg dose) [%] | selectivity for the CB1 vs. CB2 receptor (CB1 vs. CB2 receptor) | duration of action compared with Compound 1 (animal models) | affinity for a wide range of other neurological receptors [4] | in vivo effects of cannabinoid agonists (hypothermia, ring immobility, increased tail flick latency) (rats)
1 | Cc1c(C(=O)NN2CCCCC2)nn(-c2ccc(Cl)cc2Cl)c1-c1ccc(Cl)cc1 [Compound 1, N-(piperidin-1-yl)-5-(4-chlorophenyl)-1-(2,4-dichlorophenyl)-4-methyl-1H-pyrazole-3-carboxamide] | hydroxylation only on the pyrazole 3-substituent | 77 | 9.4 | 12.8 |  |  |  | 
2 | CCc1c(C(=O)NN2CCCCC2)nn(-c2ccc(Cl)cc2Cl)c1-c1ccc(Br)cc1 [Compound 1A, 5-(4-bromophenyl)-1-(2,4-dichlorophenyl)-4-ethyl-N-(1-piperidinyl)-1H-pyrazole-3-carboxamide] |  |  |  |  | highly selective | longer | little affinity | reverse
